Assay results reported in US5548064A, “Vitamin B12 conjugates with EPO, analogues thereof and pharmaceutical compositions” (Biotech Australia Pty Limited, priority 1993, dated 1996).

B1: GCSF-dithioproplonamido[12-aminododecylamido]-eVB12 (conjugate, UniProt P09919 31-207, looked up)
Granulocyte …: TPLGPASSLPQSFLLKCLEQVRKIQGDGAALQEKLVSECATYKLCHPEELVLLGHSLGIPWAPLSSCPSQALQLAGCLSQLHSGLFLYQGLLQALEGISPELGPTLDTLQLDVADFATTIWQQMEELGMAPALQPTQGAMPAFASAFQRRAGGVLVASHLQSFLEVSYRVLRHLAQP
modifications: disulphide-linked aminododecyl vitamin B12 conjugate
notes: GCSF linked by disulphide at Cys-17 to DTP-aminododecyl-eVB12 (section 1.7)
B2: GCSF-acylhydrazidyl-eVB12 (conjugate, UniProt P09919 31-207, looked up)
Granulocyte …: TPLGPASSLPQSFLLKCLEQVRKIQGDGAALQEKLVSECATYKLCHPEELVLLGHSLGIPWAPLSSCPSQALQLAGCLSQLHSGLFLYQGLLQALEGISPELGPTLDTLQLDVADFATTIWQQMEELGMAPALQPTQGAMPAFASAFQRRAGGVLVASHLQSFLEVSYRVLRHLAQP
modifications: hydrazide vitamin B12 conjugate
notes: EDAC-mediated conjugate of hydrazido-eVB12 with carboxyl groups of GCSF (section 1.11)
B3: GCSF-acyl[adipyldihydrazidyl]-eVB12 (conjugate, UniProt P09919 31-207, looked up)
Granulocyte …: TPLGPASSLPQSFLLKCLEQVRKIQGDGAALQEKLVSECATYKLCHPEELVLLGHSLGIPWAPLSSCPSQALQLAGCLSQLHSGLFLYQGLLQALEGISPELGPTLDTLQLDVADFATTIWQQMEELGMAPALQPTQGAMPAFASAFQRRAGGVLVASHLQSFLEVSYRVLRHLAQP
modifications: adipyl-dihydrazide vitamin B12 conjugate
notes: EDAC-mediated conjugate of adipylhydrazido-eVB12 with GCSF (section 1.12)
B4: GCSF-diothloproplonamido12-aminododecyl-suberyl-hexylamido-eVB12 (conjugate, UniProt P09919 31-207, looked up)
Granulocyte …: TPLGPASSLPQSFLLKCLEQVRKIQGDGAALQEKLVSECATYKLCHPEELVLLGHSLGIPWAPLSSCPSQALQLAGCLSQLHSGLFLYQGLLQALEGISPELGPTLDTLQLDVADFATTIWQQMEELGMAPALQPTQGAMPAFASAFQRRAGGVLVASHLQSFLEVSYRVLRHLAQP
modifications: disulphide-linked dodecylsuberylhexyl vitamin B12 conjugate
notes: GCSF linked by disulphide to DTP-dodecylsuberylhexyl-eVB12 (section 1.9)

Each molecule was assayed against intrinsic factor (IF) (Homo sapiens, UniProt P27352) (assay: Relative intrinsic factor (IF) affinity of eVB12 analogues and complexes). Conditions: % of native eVB12.
Assay type: binding
Description: IF Affinity is expressed as a percentage of the affinity of the eVB12 derivative relative to native, unmodified VB12.

Sequence of intrinsic factor (IF) (P27352 19-417, species assumed): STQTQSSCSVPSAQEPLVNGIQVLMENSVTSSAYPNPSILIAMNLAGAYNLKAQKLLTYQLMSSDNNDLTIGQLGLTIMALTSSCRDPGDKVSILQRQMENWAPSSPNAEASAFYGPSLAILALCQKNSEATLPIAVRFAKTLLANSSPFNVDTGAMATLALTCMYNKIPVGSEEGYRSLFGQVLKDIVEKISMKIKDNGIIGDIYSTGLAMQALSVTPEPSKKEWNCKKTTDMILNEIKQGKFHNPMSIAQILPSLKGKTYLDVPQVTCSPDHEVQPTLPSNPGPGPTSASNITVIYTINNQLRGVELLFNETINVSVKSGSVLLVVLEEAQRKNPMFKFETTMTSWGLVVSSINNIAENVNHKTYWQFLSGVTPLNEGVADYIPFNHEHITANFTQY

| Molecule | IF Affinity |
| --- | --- |
| B1 | 2-3% |

Same assay, conditions: percentage of the affinity of the eVB12 derivative relative to native, unmodified VB12

| Molecule | IF Affinity |
| --- | --- |
| 2-aminoethylamido-eVB12 | 48% |
| 6-aminohexylamido-eVB12 | 91% |
| 12-aminododecyl-suberyl-hexylamido-eVB12 | 82% |
| 12-aminododecylamido-eVB12 | 74% |
| EPO-acyl[adipyldlhydrazidyl]-eVB12 | 11% |
| EPO-acylhydrazidyl-eVB12 | 6% |
| adipyldihydrazidyl-eVB12 | 44% |
| dithiopropionamido[6-aminohexylamido]-eVB12 | 7% |
| dithioproplonamido[6-aminohexylamido]-eVB12 | 11% |
| dithlopropionamido[2-aminoethylamido]-eVB12 | 6% |
| eVB12 carboxylate | 35% |
| hydrazidyl-eVB12 | 100% |
| B1 | 3% |
| B2 | 10% |
| B3 | 7% |
| B4 | 28% |
